A short description of series [1]: Solid-state stability / dehydration of hydrate crystal forms. In kind it is physicochemical. The settings on record: for Dehydration temperature range: solid crystal form. Here is the method: Differential Scanning Calorimetry (DSC) analysis was carried out on either TA Instruments DSC2920 or TA instrument Q1000 or a Mettler DSC 821, calibrated with indium. DSC sample was prepared by weighing 2-4 mg of material in an aluminum pan with a pinhole. The sample was heated under nitrogen, at a rate of 5° C. or 10° C. per minute from 3 to 300 C.

In series [2] the test system is TNF-alpha production by human LPS-treated monocytes. Briefly: Inhibition of TNF-alpha production by human LPS-treated monocytes. In kind it is cell-based. The settings on record: Monocyte, human mononuclear cells, 4 hours, TNF-α ELISA, read-out: IC50 in the TNFα in vitro assay. How it is done:
Inhibition of TNF-alpha Production by Human LPS-treated Monocytes
Mononuclear cells are isolated from heparinized blood (1.5 ml of 1000 units/ml heparin for injection, Elkins-Sinn, Inc. added to each 50 ml sample) using Accuspin System-Histopaque-1077 tubes (Sigma A-7054). Thirty-five milliliters of whole blood are added to each tube and the tubes are centrifuged at 2100 rpm for 20 minutes in a Beckman GS-6KR centrifuge with the brake off at room temperature. The mononuclear cells which collect at the interface are removed, diluted with Macrophage serum free medium (Gibco-BRL) (Medium) to achieve a final volume of 50 ml, and collected by centrifugation for 10 minutes. The supernatant is discarded and the cell pellet is washed 2 times with 50 ml of Medium. A sample of the suspended cells is taken before the second wash for counting. Based on this count, the washed cells are diluted with Medium containing 1% FBS to a final concentration of 2.7×10^6 cells/ml and 75 μl of the cell suspension is added to each well of a 96 well plate.
3-isopropyl-6-[4-(2,5-difluoro-phenyl)-oxazol-5-yl]-[1,2,4]triazolo-[4,3-a]pyridine may be tested at final concentrations from 2 μM to 0.016 μM, but may be tested at other concentrations, depending on desire. […]
Supernatants are analyzed for TNF-α content using R&D ELISA. […]
The amount of TNF-α immunoreactivity in the samples is calculated as follows: […]
(ELISA stands for enzyme-linked immunosorbent assay.)

The test system of series [3] is TNFα. Kind of series: In vivo inhibition of TNFα (LPS-injected rats, serum TNFα ELISA). As to conditions: Rattus norvegicus, ip, drug 1 hour before LPS i.p., serum TNFα 90 minutes later. Here is the method:
In Vivo Inhibition of TNFα Rats were weighed and dosed with vehicle (0.5% methyl cellulose, Sigma) or drug. One hour later, animals were injected i.p. with LPS (50 ug/rat, Sigma L-4130). Ninety minutes later, animals were sacrificed by asphyxiation with CO2 and bled by cardiac puncture. Blood was collected in Vaccutainer tubes and spun for 20 minutes at 3000 rpm. Serum was assayed for TNFα levels using an ELISA (R&D Systems).

The test system of series [4] is MAPKAP kinase-2. Briefly: MAPKAP Kinase-2 assay (LPS-stimulated monocytes, immunoprecipitation, kinase activity). In kind it is cell-based. As to conditions: human monocytes, LPS 30 minutes, MAPKAP kinase-2 immunoprecipitate; read-out: IC50 in the MAPKAP in vitro assay. Here is the method:
Mononuclear cells are collected from heparinized human blood as detailed above. The washed cells are seeded into 6-well cluster plates at a density of 1×10^7 cells/well (in 2 ml of Medium). The plates are incubated at 37° C. in a 5% CO2 environment for 2 hours to allow adherence of the monocytes, after which time media supernatants containing non-adherent cells are removed by aspiration and 2 ml of fresh medium are added to each well. Plates are incubated overnight at 37° C. in a 5% CO2 environment.
Media are removed by aspiration. The attached cells are rinsed twice with fresh Medium, then 2 ml of D-MEM medium containing 10% heat inactivated FBS are added to each well. 3-isopropyl-6-[4-(2,5-difluoro-phenyl)-oxazol-5-yl]-[1,2,4]triazolo-[4,3-a]pyridine is prepared as a 30 mM stock solution in DMSO and diluted to 1250, 250, 50, 10, 2, and 0.4 μM in D-MEM containing 1% DMSO and 10% FBS. To individual wells of the monocyte cultures, 20 μl of these 3-isopropyl-6-[4-(2,5-difluoro-phenyl)-oxazol-5-yl]-[1,2,4]triazolo-[4,3-a]pyridine dilutions are added resulting in final 3-isopropyl-6-[4-(2,5-difluoro-phenyl)-oxazol-5-yl]-[1,2,4]triazolo-[4,3-a]pyridine concentrations of 12.5, 2.5, 0.5, 0.1, 0.02 and 0.004 μM. After a 10 minute preincubation period, 20 μl of a 10 μg/ml LPS solution are added to each well and the plates are incubated at 37° C. for 30 minutes. […]

`CC(C)c1nnc2ccc(-c3ocnc3-c3cc(F)ccc3F)cn12` [Form E, 3-Isopropyl-6-[4-(2,5-difluoro-phenyl)-oxazol-5-yl]-[1,2,4]triazolo-[4,3-a]pyridine form E]: in series [1], the “Form conversion upon dehydration” value is “converts to Form B upon dehydration” and the Dehydration temperature range is 75 to 100 °C.

As for `CC(C)c1nnc2ccc(-c3ocnc3-c3cc(F)ccc3F)cn12` [Form D, 3-Isopropyl-6-[4-(2,5-difluoro-phenyl)-oxazol-5-yl]-[1,2,4]triazolo-[4,3-a]pyridine form D], the Dehydration temperature range in series [1] was in the range of 30 to 70 °C.

One may read the IC50 as the point on the concentration scale where inhibition reaches its midpoint. By ED50 is commonly meant the dose at which the effect has come halfway, by size or by number of responders. As to `CC(C)c1nnc2ccc(-c3ocnc3-c3cc(F)ccc3F)cn12` [6-[4-(2,5-Difluoro-phenyl)-oxazol-5-yl]-3-isopropyl-[1,2,4]triazolo-[4,3-a]pyridine], the IC50 in series [2] and in series [4] was less than 10 µM each time. This compound also came in with an ED50 in series [3] of less than 50 mg/kg.

For the origin of these results see patent US6949652B2, “Crystalline forms of 3-isopropyl-6-[4-(2,5-difluoro-phenyl)-oxazol-5-yl]-[1,2,4]triazolo-[4,3-A]pyridine” (Pfizer, Inc., priority 2002, dated 2005).
